These results are taken from ChEMBL document CHEMBL3045253, “Synthesis and in vitro antiproliferative activity of diphenyl(sulphonylpiperidin-4-yl)methanol derivatives” (Med Chem Res, 2010).

One data set concerns HeLa. The data set is described as follows: Cytotoxicity against Homo sapiens (human) HeLa cells assessed as survival at 100 uM after 24 hr by MTT assay relative to control. In kind it is functional. The following applies: read-out: Survival.
As to `O=[N+]([O-])c1cccc(S(=O)(=O)N2CCC(C(O)(c3ccccc3)c3ccccc3)CC2)c1`, the viability at 100 µM was determined as 70.3%.
Same read-out and setting: next, `CS(=O)(=O)N1CCC(C(O)(c2ccccc2)c2ccccc2)CC1`: 64.4%; `O=[N+]([O-])c1ccccc1S(=O)(=O)N1CCC(C(O)(c2ccccc2)c2ccccc2)CC1`: 64.3%; `O=S(=O)(CCl)N1CCC(C(O)(c2ccccc2)c2ccccc2)CC1`: 56.1%.
With `Cc1noc(C)c1S(=O)(=O)N1CCC(C(O)(c2ccccc2)c2ccccc2)CC1`, the viability at 100 µM was 39.9%.
`CC(C)S(=O)(=O)N1CCC(C(O)(c2ccccc2)c2ccccc2)CC1`: the viability at 100 µM stood at 78.5%.
Same read-out and setting: the value for `O=S(=O)(Cc1ccccc1)N1CCC(C(O)(c2ccccc2)c2ccccc2)CC1` was 70.1%; that for `CCCc1ccc(S(=O)(=O)N2CCC(C(O)(c3ccccc3)c3ccccc3)CC2)cc1` was 73.1%; that for `Cc1ccc(S(=O)(=O)N2CCC(C(O)(c3ccccc3)c3ccccc3)CC2)cc1` was 71.2%.
As to `O=S(=O)(c1ccc(Cl)cc1)N1CCC(C(O)(c2ccccc2)c2ccccc2)CC1`, the viability at 100 µM is 49.7%.
Turning to `O=S(=O)(c1ccc(Cl)cc1F)N1CCC(C(O)(c2ccccc2)c2ccccc2)CC1`, the viability at 100 µM came to 39.2%.
Still for that read-out and setting: the value for `O=[N+]([O-])c1ccc(S(=O)(=O)N2CCC(C(O)(c3ccccc3)c3ccccc3)CC2)cc1` was 54%.
As to `O=S(=O)(c1ccccc1)N1CCC(C(O)(c2ccccc2)c2ccccc2)CC1`, the viability at 100 µM worked out at 68.3%.

Another data set deals with HepG2. The data set is described as follows: Cytotoxicity against Homo sapiens (human) HepG2 cells assessed as survival at 100 uM after 24 hr by MTT assay relative to control. The class given is functional. The following applies: HepG2, 24 h, read-out: Survival. For orientation: Tetrazolium assays rely on reduction of a dye to a coloured formazan, in cell work by metabolically active cells.
Consider `O=[N+]([O-])c1cccc(S(=O)(=O)N2CCC(C(O)(c3ccccc3)c3ccccc3)CC2)c1`, for which the viability at 100 µM amounted to 64.2%.
On the same count and under the same terms, next, `CS(=O)(=O)N1CCC(C(O)(c2ccccc2)c2ccccc2)CC1`: 60.9%; `O=[N+]([O-])c1ccccc1S(=O)(=O)N1CCC(C(O)(c2ccccc2)c2ccccc2)CC1`: 57.2%.
As to `O=S(=O)(CCl)N1CCC(C(O)(c2ccccc2)c2ccccc2)CC1`, the viability at 100 µM is 59.1%.
In the case of `Cc1noc(C)c1S(=O)(=O)N1CCC(C(O)(c2ccccc2)c2ccccc2)CC1`, the viability at 100 µM was determined as 52.2%.
As for `CC(C)S(=O)(=O)N1CCC(C(O)(c2ccccc2)c2ccccc2)CC1`, the viability at 100 µM amounted to 64.7%.
With `O=S(=O)(Cc1ccccc1)N1CCC(C(O)(c2ccccc2)c2ccccc2)CC1`, the viability at 100 µM came out at 39.1%.
Still for that read-out and setting: next, `CCCc1ccc(S(=O)(=O)N2CCC(C(O)(c3ccccc3)c3ccccc3)CC2)cc1`: 62.6%; `Cc1ccc(S(=O)(=O)N2CCC(C(O)(c3ccccc3)c3ccccc3)CC2)cc1`: 62.7%.
The same measure, in the same setting: next, `O=S(=O)(c1ccc(Cl)cc1)N1CCC(C(O)(c2ccccc2)c2ccccc2)CC1`: 52.2%; `O=S(=O)(c1ccc(Cl)cc1F)N1CCC(C(O)(c2ccccc2)c2ccccc2)CC1`: 46.3%; `O=[N+]([O-])c1ccc(S(=O)(=O)N2CCC(C(O)(c3ccccc3)c3ccccc3)CC2)cc1`: 68.7%.
Same read-out and setting: the value for `O=S(=O)(c1ccccc1)N1CCC(C(O)(c2ccccc2)c2ccccc2)CC1` was 68.3%.

The test system of the next data set is HT-29. The data set is described as follows: Cytotoxicity against Homo sapiens (human) HT-29 cells assessed as survival at 100 uM after 24 hr by MTT assay relative to control. In kind it is functional. The following applies: HT-29, 24 h, read-out: Survival.
`O=[N+]([O-])c1cccc(S(=O)(=O)N2CCC(C(O)(c3ccccc3)c3ccccc3)CC2)c1`: the viability at 100 µM amounted to 75%.
With `CS(=O)(=O)N1CCC(C(O)(c2ccccc2)c2ccccc2)CC1`, the viability at 100 µM was found to be 74.7%.
Take `O=[N+]([O-])c1ccccc1S(=O)(=O)N1CCC(C(O)(c2ccccc2)c2ccccc2)CC1`: the viability at 100 µM came out at 78.5%.
Turning to `O=S(=O)(CCl)N1CCC(C(O)(c2ccccc2)c2ccccc2)CC1`, the viability at 100 µM was 45.2%.
The same measure, in the same setting: the value for `Cc1noc(C)c1S(=O)(=O)N1CCC(C(O)(c2ccccc2)c2ccccc2)CC1` was 73.6%.
Regarding `CC(C)S(=O)(=O)N1CCC(C(O)(c2ccccc2)c2ccccc2)CC1`, the viability at 100 µM turned out to be 77.6%.
In the case of `O=S(=O)(Cc1ccccc1)N1CCC(C(O)(c2ccccc2)c2ccccc2)CC1`, the viability at 100 µM was found to be 76.5%.
Same read-out and setting: next, `CCCc1ccc(S(=O)(=O)N2CCC(C(O)(c3ccccc3)c3ccccc3)CC2)cc1`: 74.2%; `Cc1ccc(S(=O)(=O)N2CCC(C(O)(c3ccccc3)c3ccccc3)CC2)cc1`: 45.1%; `O=S(=O)(c1ccc(Cl)cc1)N1CCC(C(O)(c2ccccc2)c2ccccc2)CC1`: 69.6%.
In the case of `O=S(=O)(c1ccc(Cl)cc1F)N1CCC(C(O)(c2ccccc2)c2ccccc2)CC1`, the viability at 100 µM was determined as 47.2%.
For `O=[N+]([O-])c1ccc(S(=O)(=O)N2CCC(C(O)(c3ccccc3)c3ccccc3)CC2)cc1`, the viability at 100 µM came to 70.8%.
Take `O=S(=O)(c1ccccc1)N1CCC(C(O)(c2ccccc2)c2ccccc2)CC1`: the viability at 100 µM stood at 73.9%.

The subject of a further data set is MCF7. The data set is described as follows: Cytotoxicity against Homo sapiens (human) MCF7 cells assessed as survival at 100 uM after 24 hr by MTT assay relative to control. In kind it is functional. To be noted: MCF7, 24 h, read-out: Survival.
Regarding `O=[N+]([O-])c1cccc(S(=O)(=O)N2CCC(C(O)(c3ccccc3)c3ccccc3)CC2)c1`, the viability at 100 µM stood at 63.4%.
In the case of `CS(=O)(=O)N1CCC(C(O)(c2ccccc2)c2ccccc2)CC1`, the viability at 100 µM was 60.5%.
In the case of `O=[N+]([O-])c1ccccc1S(=O)(=O)N1CCC(C(O)(c2ccccc2)c2ccccc2)CC1`, the viability at 100 µM was found to be 73.8%.
Still for that read-out and setting: the value for `O=S(=O)(CCl)N1CCC(C(O)(c2ccccc2)c2ccccc2)CC1` was 66%; that for `Cc1noc(C)c1S(=O)(=O)N1CCC(C(O)(c2ccccc2)c2ccccc2)CC1` was 38.7%.
Turning to `CC(C)S(=O)(=O)N1CCC(C(O)(c2ccccc2)c2ccccc2)CC1`, the viability at 100 µM worked out at 70.5%.
Still for that read-out and setting: next, `O=S(=O)(Cc1ccccc1)N1CCC(C(O)(c2ccccc2)c2ccccc2)CC1`: 69.7%; `CCCc1ccc(S(=O)(=O)N2CCC(C(O)(c3ccccc3)c3ccccc3)CC2)cc1`: 68.7%; `Cc1ccc(S(=O)(=O)N2CCC(C(O)(c3ccccc3)c3ccccc3)CC2)cc1`: 70.2%.
Regarding `O=S(=O)(c1ccc(Cl)cc1)N1CCC(C(O)(c2ccccc2)c2ccccc2)CC1`, the viability at 100 µM came to 61.4%.
As for `O=S(=O)(c1ccc(Cl)cc1F)N1CCC(C(O)(c2ccccc2)c2ccccc2)CC1`, the viability at 100 µM turned out to be 44.2%.
In the case of `O=[N+]([O-])c1ccc(S(=O)(=O)N2CCC(C(O)(c3ccccc3)c3ccccc3)CC2)cc1`, the viability at 100 µM worked out at 69.8%.
On to `O=S(=O)(c1ccccc1)N1CCC(C(O)(c2ccccc2)c2ccccc2)CC1`, for which the viability at 100 µM was 65.8%.

Tested on in another data set: not listed separately
Briefly: Cytotoxicity against Homo sapiens (human) NF103 cells assessed as survival at 100 uM after 24 hr by MTT assay relative to control. To be noted: read-out: Survival. The class given is cell-based.
Consider `O=[N+]([O-])c1cccc(S(=O)(=O)N2CCC(C(O)(c3ccccc3)c3ccccc3)CC2)c1`, for which the viability at 24 h, 100 µM was 57.4%.
Consider `CS(=O)(=O)N1CCC(C(O)(c2ccccc2)c2ccccc2)CC1`, for which the viability at 24 h, 100 µM was 64%.
Consider `O=[N+]([O-])c1ccccc1S(=O)(=O)N1CCC(C(O)(c2ccccc2)c2ccccc2)CC1`, for which the viability at 24 h, 100 µM came out at 63.4%.
On to `O=S(=O)(CCl)N1CCC(C(O)(c2ccccc2)c2ccccc2)CC1`, for which the viability at 24 h, 100 µM came to 53.5%.
For the compound `Cc1noc(C)c1S(=O)(=O)N1CCC(C(O)(c2ccccc2)c2ccccc2)CC1`, the viability at 24 h, 100 µM worked out at 53.8%.
In the case of `CC(C)S(=O)(=O)N1CCC(C(O)(c2ccccc2)c2ccccc2)CC1`, the viability at 24 h, 100 µM was determined as 60%.
The same measure, in the same setting: next, `O=S(=O)(Cc1ccccc1)N1CCC(C(O)(c2ccccc2)c2ccccc2)CC1`: 59.8%; `CCCc1ccc(S(=O)(=O)N2CCC(C(O)(c3ccccc3)c3ccccc3)CC2)cc1`: 60%; `Cc1ccc(S(=O)(=O)N2CCC(C(O)(c3ccccc3)c3ccccc3)CC2)cc1`: 65.6%.
With `O=S(=O)(c1ccc(Cl)cc1)N1CCC(C(O)(c2ccccc2)c2ccccc2)CC1`, the viability at 24 h, 100 µM came out at 53%.
Turning to `O=S(=O)(c1ccc(Cl)cc1F)N1CCC(C(O)(c2ccccc2)c2ccccc2)CC1`, the viability at 24 h, 100 µM worked out at 51.8%.
For `O=[N+]([O-])c1ccc(S(=O)(=O)N2CCC(C(O)(c3ccccc3)c3ccccc3)CC2)cc1`, the viability at 24 h, 100 µM stood at 53.6%.
On to `O=S(=O)(c1ccccc1)N1CCC(C(O)(c2ccccc2)c2ccccc2)CC1`, for which the viability at 24 h, 100 µM was 63%.
